Measured values reported in patent publication US20230303491A1, “DONEPEZIL ETHER PALMITATE OR PHARMACEUTICALLY ACCEPTABLE SALT THEREOF” (CHONG KUN DANG PHARMACEUTICAL CORP., priority 2020, published 2023).

Experiment: Pharmacokinetic evaluation: donepezil concentration in plasma after intramuscular injection of solution phase compositions
Assay type: in vivo
Conditions: SD rats; for release pattern: compared among DEP, DEM, DEPD, DEHD and DES formulations (40 mg/kg as donepezil) or with donepezil
Experimental: The main ingredients of Table 1 above, castor oil, and benzyl benzoate were mixed according to the components and amounts of Table 2 below, and stirred at room temperature for 0.5 to 3 hours to prepare solution phase compositions.
Four male SD rats with an average weight of 300 g were intramuscularly injected with a dose of 4 mg/kg of donepezil in the formulation of donepezil (D) and 40 mg/kg of donepezil each in the DEP, DEM, DEPD, DEHD, and DES formulations, and the concentrations of donepezil in plasma samples of SD rats were analyzed using LC-MS/MS.

With `CCCCCCCCCCCCCCOCC(=O)OC1=C(CC2CCN(Cc3ccccc3)CC2)Cc2cc(OC)c(OC)cc21` [DEP, 2-((1-benzylpiperidin-4-yl)methyl)-5,6-dimethoxy-1H-inden-3-yl 2-(tetradecyloxy) acetate] the “release of drug immediately after administration” value (D 4 mg/kg, DEP 40 mg/kg as donepezil) was “without rapid release of drug after administration”, the release pattern was “most preferred for the sustained-release composition” and the release pattern (listed as donepezil ether palmitate (DEP)) was “better release pattern than that of donepezil”.
